The nature of data set [1]: in vitro. It counts as in vitro ADME. The note with it: PAMPA, pH 7.4. How it is done: (§1) This system is further referred to as RF-MS. Preparation of the lyophilized samples for the analysis is described in the sections dedicated to the individual methods. Lyophilized samples were dissolved in the mobile phase (95% water, 5% acetonitrile, 0.1% formic acid) with respective internal standards. The dissolved samples were aspired directly from 96-well plates into a 10 μL sample loop and passed through a C4 cartridge (Agilent Technologies) with solvent A (95% water, 0.01% formic acid, 5% acetonitrile) at a flow rate of 1.5 mL/minute for 3 seconds. After the desalting step, the analyte retained on the cartridge was eluted with solvent B (95% acetonitrile, 5% 0.01% formic acid) to the mass spectrometer at a flow rate of 0.4 mL/minute for 7 seconds. Mass spectrometry was carried out using electrospray ionization in the positive ion mode. Daughter ion peaks were identified using a multiple-reaction monitoring protocol.
The parallel artificial membrane permeability assay (PAMPA) was performed using the Millipore MultiScreen filter MultiScreen-IP Durapore 0.45 μm plates and receiver plates (Merck Millipore) according to the manufacturer's protocol PC040EN00. […]
Calculations: The relative permeability log Pe was calculated as log Pe=log{Cx−ln(1−drugA/drugE)}, where C=(VA×VD)/{(VD+VA)×A×T}. […]
A general note: The PAMPA barrier holds no transporters, so it reflects passive diffusion.

For data set [2], the system named is NIH3T3 cells with mPer2-Luc reporter. Put plainly: Circadian rhythm period and amplitude, NIH3T3 cells with Per2-Luc reporter (Example 2). It counts as cell-based, mouse. How it is done:
Mouse embryonic fibroblasts NIH3T3 cells were grown in standard DMEM with 10% fetal calf serum. NIH3T3 cells were transfected with 1 μg of Per2-Luc reporter (Meng, 2009) using GeneJuice (Novagen) and selected under hygromycin. The cell line was clonally expanded and a single monoclonal cell line was used for further experiments. Cells were cultured in a 96-well plate in growth medium to 90+% confluence. Test compound or vehicle (DMSO) was applied to recording medium with 100 U/ml penicillin, 100 μg/ml streptomycin, 1×GlutaMAX (ThermoFisher, Waltham, MA, USA), 10% fetal calf serum (Sigma) and 0.1 mM Luciferin-EF (Promega Madison, WI, USA). Luminescence was recorded every hour for an additional 144 hours in a Luminoskan Ascent (ThermoFisher). Circadian rhythm analysis was performed using cosinor analysis. […] The concentration and level of other proteins, whose rhythmic expression is controlled by an oscillator in the brain and peripheral tissues (so-called clock-controlled genes), is also necessarily affected.

Data set [3] has as its system explanted suprachiasmatic nuclei (SCN) of mPer2Luc mice. Put plainly: PER2::Luc rhythm in organotypic SCN explants (Example 3). Format: cell-based, mouse. As for the experimental part: amplitude of circadian expression of the PER2::Luc clock reporter in the explanted suprachiasmatic nuclei (SCN) of the hypothalamus, the central clock of mammals, of the transgenic mouse line Male and female mPer2Luc mice (strain B6.129S6-Per2tm1Jt/J, JAX, USA) (Yoo et al., 2004) were maintained in a light/dark cycle with 12 hours of light and 12 hours of darkness (LD12: 12), killed between 12:00 and 15:00, i.e. 6-9 hours after turning on the lights, by rapid cervical dislocation under isoflurane anesthesia, their brains were removed and 250 μm thick SCN slices in ice-cold HBSS medium were prepared using a vibratome (Leica, Wetzlar, Germany). Two explants containing SCN from each brain were prepared. Individual SCN explants were then placed on Millicell Culture Inserts (Merck, Darmstadt, Germany) inside 35 mm Petri dishes with test compound or DMSO vehicle in 1 ml air-buffered recording medium supplemented with 100 U/ml penicillin, 100 μg/ml streptomycin (Sigma-Aldrich, St. Luis, MO, USA), 1×GlutaMAX (ThermoFisher, Waltham, MA, USA), 5% fetal calf serum (Sigma) and 0.1 mM Luciferin-EF (Promega Madison, WI, USA). The dishes were sealed with vacuum Vaseline and glass coverslips and placed inside a LumiCycle (Actimetrics) for bioluminescence recording. Rhythm analysis was performed in Lumicycle Analysis software (Actimetrics).

The nature of data set [4]: in vitro. It counts as in vitro ADME. As for the experimental part:
as §1
Caco-2 (American Tissue Type Collection) a MDR1-MCDK (Netherlands Cancer Institute) were cultured in DMEM medium with 10% fetal bovine serum. […]
Calculations: The apparent permeability coefficient was calculated as Papp=(dQ/dt)/(C0×A), where dQ/dt is the rate of permeation of the drug across the cell monolayer, C0 is the donor compartment concentration at time t=0 and A is the area of the cell monolayer. […]

The source of these data is patent US12558358B2 (UNIVERZITA PALACKEHO V OLOMOUCI, priority 2019, dated 2026).

For the molecule `c1coc(CNc2ncnc3nc[nH]c23)c1` [N-(furan-2-ylmethyl)-7H-purin-6-amine], the Papp at 18 h, 20 AM in the data set “in vitro [1]” was 5.01 ×10⁻⁶ cm/s. The “amplitude of circadian expression of mPer2-Luc” value in data set [2] (NIH3T3, FIG. 2) was “modulates the amplitude”. In addition, the circadian rhythm period entry in data set [2] (NIH3T3 mPer2-Luc, luminescence 144 hours, cosinor analysis, FIG. 2) was “prolongs the circadian rhythm period”; in data set [3] (FIG. 3B), “prolongs the circadian rhythm period”. Besides, in data set [3] (FIG. 3C), the amplitude entry is reported as “modulates the amplitude”. In addition, the Papp at 1 h, 10 μM in “in vitro [4]” (dog, MDCK-MDR1, pH 7.4) is 315 ×10⁻⁶ cm/s. For the same molecule, the Papp at 2 h, 10 μM in “in vitro [4]” (human, Caco-2, pH 7.4) turned out to be 76 ×10⁻⁶ cm/s.

A word on the Papp: it is the rate of passage across a membrane or cell layer, normalised by area and donor concentration.
